Laboratory results from PubChem BioAssay (NCI).
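Cultured in 96-well plates, cells were exposed to test compound for 48 hours across five concentrations. GI50: concentration for 50% inhibition of growth. At the TGI there is no net growth.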

Columns and labels:
Assay in all cases: NCI tumour cell line growth inhibition, 48 h
PC-3 prostate = tested on: PC-3 prostate
SK-OV-3 ovarian = tested on: SK-OV-3 ovarian
LOX IMVI melanoma = tested on: LOX IMVI melanoma
BT-549 breast = tested on: BT-549 breast
RXF 393 renal = tested on: RXF 393 renal
IGROV1 ovarian = tested on: IGROV1 ovarian
SF-268 CNS = tested on: SF-268 CNS
UO-31 renal = tested on: UO-31 renal
MDA-MB-231 breast = tested on: MDA-MB-231 breast
UACC-257 melanoma = tested on: UACC-257 melanoma

Compound | GI50 (PC-3 prostate) [µM] | TGI (PC-3 prostate) [µM] | GI50 (SK-OV-3 ovarian) [µM] | TGI (SK-OV-3 ovarian) [µM] | GI50 (LOX IMVI melanoma) [µM] | TGI (LOX IMVI melanoma) [µM] | GI50 (BT-549 breast) [µM] | TGI (BT-549 breast) [µM] | GI50 (RXF 393 renal) [µM] | TGI (RXF 393 renal) [µM] | GI50 (IGROV1 ovarian) [µM] | TGI (IGROV1 ovarian) [µM] | GI50 (SF-268 CNS) [µM] | TGI (SF-268 CNS) [µM] | GI50 (UO-31 renal) [µM] | TGI (UO-31 renal) [µM] | GI50 (MDA-MB-231 breast) [µM] | TGI (MDA-MB-231 breast) [µM] | GI50 (UACC-257 melanoma) [µM] | TGI (UACC-257 melanoma) [µM]
CCOC(=O)c1c(C)nc2c(c1N)/C(=C/c1ccccn1)C(=O)N2Cc1ccccc1 | 1.17 | 2.64 | 3.08 | > 50 | 0.83 | 1.54 | 1.11 | 3.09 | 0.95 | 1.79 | 1.2 | 3.47 | 1.41 | > 50 | 0.691 | 1.37 |  |  |  | 
CCN(CC)c1ccc(-c2cc(-c3cc(OC)c(OC)c(OC)c3)nc(N3CCC(O)CC3)c2C#N)cc1 | 0.713 | > 100 | 1.8 | > 31.6 | 0.0419 | 0.172 | 0.911 | 3.89 | 0.193 | 2.93 | 0.373 | > 27.7 | 0.988 | 3.13 | 0.274 | 1.82 | 0.214 | 1.77 |  | 
COc1ccc(-c2cc(-c3ccc(Cl)cc3)nc(NCCCCNc3ccnc4cc(Cl)ccc34)n2)cc1 |  |  | 13 | 27.3 | 1.7 | 3.18 | 13.4 | 28.6 | 1.65 | 5.2 | 1.46 | 3.12 | 2.39 | 6.31 | 1.83 | 12.7 | 1.72 | 3.28 | 1.96 | 4.22
CCCCCCCCCCCCCCCC(=O)OCCOCCOCCOCCOCCOC(=O)CCCCCCCCCCCCCCC |  |  |  | > 100 |  | > 100 |  |  |  | > 100 |  | > 100 |  | > 100 |  | > 100 |  |  |  | > 100
COc1cc(-c2nc3ccccc3o2)cc(CN2CCCCC2)c1O | 0.664 | > 100 | 30.2 | > 74.1 |  |  | 2.45 | 9.16 | 17.1 | 52 | 14 | > 100 | 5.12 | > 100 | 1.92 | 21.8 | 12.2 | > 100 | 2.06 | 5.51
CCCCNC(=S)OCCC(C)CCCC(C)C (stereo not drawn) |  |  |  | > 100 |  | > 100 |  |  |  | > 100 |  | > 100 |  | > 100 |  | > 100 |  |  |  | > 100
COc1cc2c3c(n(CCCNCCCNCCN)c(=O)c2cc1OC)-c1cc2c(cc1C3=O)OCO2 |  |  | > 100 | > 100 | 13.1 | 36.4 |  |  | > 100 | > 100 | 32.3 | > 100 | > 100 | > 100 | > 100 | > 100 | 28.8 | > 100 | > 100 | > 100
Cc1ccc(N=C2N=C(N3CC(C)OC(C)C3)c3ccccc32)cc1 (stereo not drawn) |  |  |  |  |  | > 100 |  |  |  | 34.4 |  | 88.8 |  | > 100 |  | 54.2 |  |  |  | 74.6
N#CC1(C#N)C=CC(=C2OCC3CCCN23)C=C1 (stereo not drawn) |  |  |  | > 100 |  | > 100 |  |  |  | > 100 |  | > 100 |  | > 100 |  | > 100 |  |  |  | > 100
COc1ccc(-c2cn(-c3ccc(OC)c(OC)c3)c(=O)[nH]2)cc1 | > 100 | > 100 | > 100 | > 100 | > 100 | > 100 |  |  |  |  | > 100 | > 100 | > 100 | > 100 | > 100 | > 100 | > 100 | > 100 |  | 
C[N+](C)(C)c1cc[c]([Sn]([c]2ccc([N+](C)(C)C)cc2)([c]2ccc([N+](C)(C)C)cc2)[c]2ccc([N+](C)(C)C)cc2)cc1 |  |  | > 100 | > 100 | > 100 | > 100 |  |  | > 100 | > 100 | > 100 | > 100 | > 100 | > 100 | > 100 | > 100 |  |  | > 100 | > 100
COc1ccc(O)cc1C(O)c1ccccc1 (stereo not drawn) |  |  |  | > 100 |  | > 100 |  |  |  | > 100 |  | > 100 |  | > 100 |  | > 100 |  |  |  | > 100
O=C(Nc1ccccc1)OC1OC(COC(=O)c2ccccc2)C(OC(=O)c2ccccc2)C1OS(=O)(=O)c1ccc([N+](=O)[O-])cc1 (stereo not drawn) |  | > 100 |  | > 100 |  | > 100 |  | > 100 |  | > 100 |  | > 100 |  | > 100 |  | > 100 |  |  |  | > 100
CCOC(=O)c1[nH]c2cc(OC)c(OC)cc2c1CN(C)C |  |  |  | > 100 |  | > 100 |  |  |  | > 100 |  | > 100 |  | > 100 |  | > 100 |  |  |  | > 100
COc1ccc(/C=C/C(=O)c2c(-c3ccccc3)nn(C)c(=O)c2N2CCOCC2)cc1 |  |  |  | > 100 |  | > 100 |  |  |  | > 100 |  | > 100 |  | > 100 |  | > 100 |  |  |  | 
Nc1nc2c(-c3ccc([N+](=O)[O-])cc3)nnn2c2ccccc12 |  |  |  | > 100 |  | > 100 |  |  |  |  |  | > 100 |  | > 100 |  | > 100 |  |  |  | 
NCCCNc1nc2ccccc2c2c(=O)c3cccc(Cl)c3sc12 | 1.52 | 2.95 | 1.45 | 2.92 |  |  | 1.45 | 2.81 | 1.47 | 2.83 |  |  |  |  | 1.03 | 2.24 | 1.18 | 2.56 |  | 
O=C(Nc1ccc(Cl)cc1C(=O)O)c1ccc([N+](=O)[O-])cc1 |  |  |  | 56.5 |  | 37.6 |  |  |  |  |  | 45.5 |  | > 100 |  | 44.1 |  |  |  | 48
COCCc1n(Cc2ccc3ccccc3c2)c2ccccc2[n+]1Cc1ccc2ccccc2c1 | 0.412 | 1.62 | 1.28 | 2.59 |  |  |  |  |  |  |  |  |  |  | 1.48 | 2.88 | 0.536 | 1.94 | 0.456 | 1.77
